Assay results published in PubChem BioAssay (NCI).
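Tested at 5 concentrations; 48 h exposure; 96-well plates; endpoints linearly interpolated, else capped at highest concentration. GI50 = concentration required for 50% inhibition of growth. TGI is the concentration that stops growth completely.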

What was measured:
Experiment in all cases: NCI anticancer screen, dose series, 48 h
[1] = tested on: MALME-3M melanoma
[2] = tested on: IGROV1 ovarian
[3] = tested on: EKVX NSCLC
[4] = tested on: SK-MEL-5 melanoma
[5] = tested on: CCRF-CEM leukemia
[6] = tested on: NCI-H522 lung
[7] = tested on: SF-539 CNS
[8] = tested on: K-562 leukemia
[9] = tested on: MDA-MB-435
[10] = tested on: RPMI-8226 leukemia

SMILES	TGI [1]	TGI [2]	TGI [3]	TGI [4]	TGI [5]	TGI [6]	TGI [7]	TGI [8]	TGI [9]	TGI [10]	GI50 [4]	GI50 [10]	GI50 [7]	GI50 [9]
COC(=O)C(CCCC1(c2ccccc2)OCCO1)C(C)=O (centres undefined)	> 100 µM	> 100 µM	> 100 µM	> 100 µM	> 100 µM	> 100 µM	> 100 µM	> 100 µM						
O=C/C(=C(/Br)I)c1ccccc1	5.87 µM	12.3 µM	28.6 µM	13.8 µM	0.798 µM	3.41 µM	6.11 µM	3.85 µM	6.74 µM					
Cc1cn(C2CCC(/C=N\O)O2)c(=O)[nH]c1=O (centres undefined)		> 100 µM	> 100 µM	> 100 µM	> 100 µM		> 100 µM	> 100 µM	> 100 µM	> 100 µM				
O=c1cc(N2CCOCC2)[nH]c(=O)n1-c1cccc(C(F)(F)F)c1	> 100 µM	> 100 µM	> 100 µM	> 100 µM	> 100 µM	> 100 µM	> 100 µM	> 100 µM	> 100 µM					
Cc1cccc2c1Oc1ccccc1C2NC(=O)c1ccc([N+](=O)[O-])cc1 (centres undefined)	> 100 µM	> 100 µM	> 100 µM	> 100 µM	> 100 µM	> 100 µM		> 100 µM		> 100 µM				
CC1OC(OC2C(O[C@H]3CC[C@@]4(C)[C@@H](CC[C@@H]5[C@@H]4CC[C@]4(C)[C@@H]6[C@H](C[C@@H]54)O[C@]4(CC[C@@H](C)CO4)[C@H]6C)C3)OC(CO)C(OC3OC(CO)C(O)C(OC4OCC(O)C(O)C4O)C3OC3OCC(O)C(O)C3O)C2O)C(O)C(O)C1O (some centres undefined)	2.63 µM	2.73 µM	2.95 µM		0.499 µM		1.25 µM	> 100 µM	2.74 µM	11.4 µM				
COc1nc(SC)nc2c1cnn2C1OC(C(O)CO)C(OC)C1O (centres undefined)	> 100 µM	> 100 µM	> 100 µM	> 100 µM	> 100 µM	> 100 µM	> 100 µM	> 100 µM		> 100 µM				
O=C1NC(Cc2c[nH]c3ccccc23)C(=O)N2C(C3CCCCC3)c3[nH]c4ccccc4c3C[C@@H]12 (some centres undefined)	28.4 µM	36.9 µM	57.2 µM	25.4 µM		28.6 µM		44.8 µM	24.6 µM	32.8 µM				
CCCC/C=C/C1Cc2ccccc2CN1S(=O)(=O)c1ccc(C)cc1 (centres undefined)	> 100 µM	26.9 µM	> 100 µM	14.9 µM	42.3 µM	20.2 µM	33 µM	> 100 µM		5.72 µM				
CCCCc1c2c(nc3c1CCCC3O)/C(=C/c1ccccc1)CCC2 (centres undefined)	44.8 µM	> 100 µM	97.4 µM	39.6 µM	43.9 µM	52.5 µM	66.9 µM	40.5 µM		46.2 µM				
CCCc1c(OC)c(=O)c2c(OC)cc(OC)c3c4c(OC)cc(OC)c5c(=O)c(OC)c(CCC)c(c1c23)c54		34.8 µM	28 µM	22.6 µM			30.9 µM		29.6 µM					
CSc1nc(-c2cc3c(c(SC)n2)CCCCC3)cc2c1CCCCC2		85.9 µM	> 100 µM	> 100 µM	> 100 µM	90.2 µM	> 100 µM	> 100 µM	> 100 µM	> 100 µM				
CCCN(CCCC(NC(C)=O)C(=O)NCc1ccccc1)C(=O)NC (centres undefined)	> 100 µM	> 100 µM	> 100 µM	> 100 µM	> 100 µM	> 100 µM	> 100 µM	> 100 µM		> 100 µM				
CCOC(=O)c1c(C)c2c(n1C)CCc1cn[nH]c1-2	> 100 µM	> 100 µM	> 100 µM	> 100 µM	> 100 µM	> 100 µM	> 100 µM	> 100 µM		> 100 µM				
CC(N)C(C)Cc1ccccc1 (centres undefined)	> 100 µM	> 100 µM	> 100 µM	> 100 µM		> 100 µM		> 100 µM	> 100 µM	> 100 µM				
NCCCNc1nc2ccccc2c2c(=O)c3cc(C(F)(F)F)ccc3sc12				3.07 µM			3.16 µM		3.06 µM	4.71 µM	1.7 µM	2.06 µM	1.71 µM	1.65 µM
COC(OC)c1cccc2c1C(=O)CCC1(O)c3ccccc3C1C2 (centres undefined)	> 100 µM	> 100 µM	> 100 µM	> 100 µM	> 100 µM	> 100 µM	> 100 µM	> 100 µM		69.8 µM				
O=[N+]([O-])c1cccc2nc3ccccc3c(NCCc3cccc[n+]3[O-])c12	< 0.034 µM		0.121 µM	< 0.01 µM		0.157 µM	0.194 µM	> 100 µM	< 0.0184 µM	0.0679 µM				
CC1(C2(C)OC(=O)c3ccccc32)OC(=O)c2ccccc21 (centres undefined)		> 100 µM		> 100 µM		> 100 µM	> 100 µM		> 100 µM	> 100 µM				
Nc1nc(SCCNC(=O)CCc2ccc(O)cc2)nc2c1ncn2C1OC(CO)C(O)C1O (centres undefined)	> 203 µM	> 203 µM		> 203 µM	> 203 µM	> 203 µM	> 203 µM	> 203 µM		> 203 µM				
COc1ccc(C2C3C(=O)C=CC(=O)C3[C@@H]2C)cc1OC (some centres undefined)	> 100 µM	> 100 µM	> 100 µM	> 100 µM		33.4 µM	> 100 µM	> 100 µM		63.1 µM				
Clc1ccc(SCCSCCCCCCCCCCSCCSc2ccc(Cl)cc2)cc1	> 100 µM	> 100 µM	> 100 µM	> 100 µM	> 100 µM	> 100 µM	> 100 µM	> 100 µM		> 100 µM				
O=C1C(/C=C/c2ccc(Cl)cc2)=NNC2N1N=C1NC(=O)C3(NN12)c1ccccc1-c1ccccc13 (centres undefined)	> 100 µM	> 100 µM	> 100 µM	> 100 µM	> 100 µM	> 100 µM	> 100 µM	> 100 µM	> 100 µM					
CCCCn1c(C)c(C(=O)OCC)s/c1=N/Nc1nc2ccccc2nc1-c1ccccc1		> 100 µM	> 100 µM	> 100 µM	> 100 µM	> 100 µM	> 100 µM	> 100 µM	> 100 µM	> 100 µM				
